# Reference: publication PMC6367362, “MD001, a Novel Peroxisome Proliferator-activated Receptor α/γ Agonist, Improves Glucose and Lipid Metabolism” (Scientific Reports, 2019)
# What was measured:
# [1] = biological target: T1, human HA-PPARα (Homo sapiens, UniProt Q07869); assay: PPRE luciferase activity assay in HEK293 cells transfected with HA-PPARα; type: cell-based; set-up: transcriptional activity of PPARα: dose or concentration left out as unconfirmed; details: HEK293, PPRE-pk-Luc; 24 h (Supplementary Fig. S2)
# T1 construct: expressed in transfected cells; host or cells: HEK293
# T1 sequence (Q07869 1-468): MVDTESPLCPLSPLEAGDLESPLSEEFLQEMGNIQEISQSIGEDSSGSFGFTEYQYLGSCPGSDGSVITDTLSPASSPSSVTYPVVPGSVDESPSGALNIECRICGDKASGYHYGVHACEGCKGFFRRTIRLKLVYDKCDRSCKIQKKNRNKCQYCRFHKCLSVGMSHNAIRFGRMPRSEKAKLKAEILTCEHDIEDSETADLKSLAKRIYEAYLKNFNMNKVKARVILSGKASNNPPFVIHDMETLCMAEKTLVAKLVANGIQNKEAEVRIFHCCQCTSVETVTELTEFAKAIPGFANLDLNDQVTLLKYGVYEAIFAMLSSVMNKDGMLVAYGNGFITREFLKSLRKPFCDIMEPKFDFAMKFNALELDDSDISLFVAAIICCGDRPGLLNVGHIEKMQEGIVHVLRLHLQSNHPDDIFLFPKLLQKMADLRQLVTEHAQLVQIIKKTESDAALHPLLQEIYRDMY
# Procedure: (§1) Figure 2 MD001 induces the expression of target genes through PPARα and PPARγ activation. HEK293 cells were transiently co-transfected with human HA-PPARα (A) and HA-PPARγ (B) expression vectors along with the reporter plasmid (PPRE-pk-Luc) or control reporter plasmid (pk-Luc) with Renilla vector for 24 h. Cells were treated with MD001 (10 μM), rosiglitazone (rosi) (10 μM) or WY14643 (WY) (10 μM) for 24 h. Luciferase activity was normalised to Renilla luciferase activity as described in the Methods section. **, vs. vehicle. (C) HepG2 cells were treated with MD001 (10 μM) for 24 h, and total RNA was isolated and synthesised into cDNA. Relative expression was quantitated using qRT-PCR. **, vs. vehicle. (D,E) HepG2 cells were transfected with control siRNA, PPARα siRNA (D), or PPARγ siRNA (E) for 48 h and treated with vehicle, WY14643 (10 μM), rosiglitazone (10 μM) or MD001 (10 μM) for 24 h. Subsequently, cells were harvested for total RNA isolation. Relative expression of target genes was quantitated using qRT-PCR. ^#, vs. control siRNA; ^‡, vs. control siRNA/vehicle; ^§, vs. control siRNA/WY; * and **, vs. control siRNA/MD001. Data represent the mean ± SD of three independent experiments. *P < 0.05, **P < 0.01, ^#P < 0.01, ^‡P < 0.01, and ^§P < 0.01.
# (§2) For transient transfection, cells were transfected with plasmid DNA constructs by polyethylenimine (PEI, Polysciences, Inc., Warrington, PA, USA) according to the manufacturer’s instructions. Transcription activity assays of PPARα and PPARγ in HEK293 cells were performed by co-transfection of HA-PPARα, HA-PPARγ, and peroxisome proliferator-response element (PPRE) reporter plasmid (PPRE-pk-Luc) or control reporter plasmid (pk-Luc) with Renilla vector for 24 h. […] Luciferase activity was measured with the Dual-Luciferase Reporter Assay System (Promega, Madison, WI, USA) and quantified using GloMax (Promega, USA) according to the manufacturer’s protocol. […]
# (§3) Luciferase activity was measured as described in the Methods section. […]
# [2] = biological target: T2, human HA-PPARγ (Homo sapiens, UniProt P37231); assay: PPRE luciferase activity assay in HEK293 cells transfected with HA-PPARγ; type: cell-based; set-up: transcriptional activity of PPARγ: dose or concentration left out as unconfirmed; details: HEK293, PPRE-pk-Luc; 24 h (Supplementary Fig. S2)
# T2 construct: expressed in transfected cells; host or cells: HEK293
# T2 sequence (P37231 1-505): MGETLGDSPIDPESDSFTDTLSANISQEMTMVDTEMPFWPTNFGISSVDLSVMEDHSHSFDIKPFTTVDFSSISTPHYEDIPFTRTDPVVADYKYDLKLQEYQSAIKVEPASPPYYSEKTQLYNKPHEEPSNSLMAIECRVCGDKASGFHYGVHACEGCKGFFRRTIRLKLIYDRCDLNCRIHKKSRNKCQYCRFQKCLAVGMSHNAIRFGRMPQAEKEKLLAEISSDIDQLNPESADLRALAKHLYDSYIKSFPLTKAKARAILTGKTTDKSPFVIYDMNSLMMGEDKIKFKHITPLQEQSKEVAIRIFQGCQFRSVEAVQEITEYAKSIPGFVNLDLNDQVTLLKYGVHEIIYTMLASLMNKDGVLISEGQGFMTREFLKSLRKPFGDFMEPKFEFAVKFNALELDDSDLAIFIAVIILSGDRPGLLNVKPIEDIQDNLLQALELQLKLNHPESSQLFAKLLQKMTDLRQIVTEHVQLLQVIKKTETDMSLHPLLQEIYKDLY
# Procedure: as §1, §2, §3
# [3] = system: wild type C57BL/6J mice; assay: Oral once-daily administration to wild type C57BL/6J mice; type: in vivo, mouse; details: wild type C57BL/6J mice
# Procedure: Supplementary Figure S6. MD001 has no influence on food intake of mice. (A) Wild type C57/BL6 mice were orally administered with vehicle, rosiglitazone (20 mg/kg), or MD001 (20 mg/kg) once a day for 60 days. The change in their body weight was evaluated and presented as gain of body weight per group (n = 5 - 6 in each group). (B) The 3-day food intake in wild type C57/BL6 mice or db/db mice during the administration of the indicated drug was measured three times (n = 5 - 6 in each group). The data represent the mean ± SD.
# C57/BL6 mice. (A-H) Wild type C57/BL6 mice were administered with vehicle, rosiglitazone (20 mg/kg), or MD001 (20 mg/kg) (n = 5 in each group) for 60 days, and their blood metabolites were measured. (B) Blood glucose level was examined during the administration of the […]
# [4] = system: db/db mice; details: mouse, in vivo; for H&E staining of skeletal muscle: 20 mg/kg
# Procedure: (§4) (A) Changes in blood glucose levels was monitored in db/db mice administered once a day with vehicle, WY14643 (WY, 20 mg/kg), rosiglitazone (rosi, 20 mg/kg), or MD001 (n = 5–6 per group) as indicated. […] (D–M) The change in various blood metabolites was examined in db/db mice administered once a day with vehicle, WY14643 (WY), rosiglitazone (rosi), or MD001 (n = 5–6 per group). *, **, and ^#, vs. vehicle; ^†, vs. vehicle, MD001(5 mg/kg), and MD001(20 mg/kg). The data represent the mean ± S.D. *P < 0.05, **P < 0.01, ^#P < 0.001, and ^†P < 0.01.
# (§5) Six-week-old C57BLKS/J-Lepr^db/Lepr^db or wild type C57BL/6J male mice were purchased from Orient Bio, Inc. (Seongnam, Korea) and acclimatised for one week. Mice were randomly grouped and orally administered with vehicle, WY14643 (20 mg/kg), rosiglitazone (20 mg/kg), or MD001 (5 mg/kg or 20 mg/kg) once a day for two months. […] Blood glucose levels were measured at the indicated time point using an OneTouch Ultra Blood Glucose Monitoring System (LifeScan, Inc., Milpitas, CA, USA).
# (§6) Livers and blood samples were collected from mice in each group.
# (§7) Tissues specimens including liver, perigonadal adipose tissue, skeletal muscle, spleen, kidney, and heart, were collected from mice in each group, fixed in 10% formalin, and embedded into paraffin. Tissue sections (5 μm) were stained with haematoxylin and eosin (H&E).
# [5] = system: db/db mice; assay: Oral once-daily administration to diabetic db/db mice; details: db/db mice; for number of large fat cells (>150 μm in diameter) / number of small fat cells (<100 μm in diameter): adipose tissue H&E; for blood glucose levels: MD001 5 or 20 mg/kg, WY14643 20 mg/kg, rosiglitazone 20 mg/kg; for diameter of the glomerular capsule: 20 mg/kg once a day for 60 days
# Procedure: as §4, §5, §6, §7
SMILES,transcriptional activity of PPARα [1],transcriptional activity of PPARγ [2],melting point [°C],body weight gain ([3]; once a day for 60 days),food ingestion [4],H&E staining of skeletal muscle [4],number of large fat cells (>150 μm in diameter) [5],number of small fat cells (<100 μm in diameter) [5],blood FFA ([5]; oral once a day),blood TG ([5]; oral once a day),blood glucose levels ([5]; oral once a day),diameter of the glomerular capsule [5],"H&E staining of adipose tissue, skeletal muscle, and liver ([3]; 20 mg/kg once a day for 60 days)",blood alanine aminotransferase (ALT) levels ([5]; oral once a day),blood aspartate aminotransferase (AST) levels ([5]; oral once a day),hepatic TG ([5]; 20 mg/kg),hepatic steatosis (H&E staining of liver) ([5]; 20 mg/kg)
Cc1c(O)cc2oc(=O)c(C(=O)/C=C/c3ccccc3)c(-c3ccccc3)c2c1O [MD002],failed to enhance,failed to enhance,274 to 278,,,,,,,,,,,,,,
"Cc1cccc(Nc2cc(Cl)nc(SCC(=O)O)n2)c1C [WY14643, reference compound]",,,,no induction of body weight gain,without changes in food ingestion,no differences,significantly reduced,significantly increased,significantly decreased,significantly decreased,significantly decreased,significantly reduced,,,,,
"CN(CCOc1ccc(CC2SC(=O)NC2=O)cc1)c1ccccn1 (stereo not drawn) [rosiglitazone, reference compound]",,,,,,no differences,significantly reduced,significantly increased,significantly decreased,significantly decreased,significantly decreased,significantly reduced,no differences,significantly increased,significantly increased,failed to reduce,exacerbated hepatic steatosis
